Structures can show the parent of a compound that is named as a salt.

This is an account of results in patent publication US9040516B2, “Uracil derivative and use thereof for medical purposes” (SUMITOMO DAINIPPON PHARMA CO., LTD., priority 2011, dated 2015).

This assay deals with T1, human neutrophil elastase (Homo sapiens, UniProt P08246).
T1 construct: purchased Elastin Products Company
T1 sequence (P08246 30-267): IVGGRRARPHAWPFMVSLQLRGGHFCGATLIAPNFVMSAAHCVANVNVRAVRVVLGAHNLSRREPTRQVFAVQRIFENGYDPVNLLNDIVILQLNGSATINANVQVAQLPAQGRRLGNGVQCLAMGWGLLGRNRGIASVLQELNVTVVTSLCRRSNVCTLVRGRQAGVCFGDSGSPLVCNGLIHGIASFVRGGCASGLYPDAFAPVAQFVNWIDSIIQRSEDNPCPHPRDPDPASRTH
The assay is described as follows: Inhibitory action against human neutrophil elastase (Test Example 1; fluorogenic substrate MeOSuc-AAPV-AMC, buffer with 2M NaCl, 0.002% Brij-35). Type of assay: biochemical. As to conditions: for IC50: 37° C., read-out: IC50 value (compound concentration required for 50% inhibition of human neutrophil elastase). On the procedure:
Assay buffer (0.4 unit/ml HNE (human neutrophil elastase, available from Elastin Products Company), 200 mM HEPES [N-(2-hydroxyethyl)piperazine-N′-(2-ethanesulfonic acid)], pH 7.5, 2M NaCl, 0.002% Brij-35) 100 μl, water for injection 40 μl and DMSO (dimethyl sulfoxide) solution of the present compound 20 μl were mixed in a 96 well plate and the mixed solutions were pre-incubated at 37° C. for five minutes. After pre-incubation, MeOSuc-AAPV-AMC (methoxysuccinyl-alanyl-alanyl-prolyl-valyl-aminomethyl cumaride (available from Sigma Aldrich Co.) solution as fluorogenic substrate (which was dissolved in 10% DMSO solution so as to adjust to 0.5 mM) 40 μl was added to the above-prepared mixed solution so as to initiate the reaction, and the mixture was incubated at 37° C. for five minutes. The fluorescence intensity of AMC was measured at an excitation wavelength of 380 nm and a fluorescence wavelength of 460 nm and the inhibition ratio was determined.

On to `Cc1c(-c2ccnn2-c2cccc(C#N)c2)c(=O)n(C)c(=O)n1-c1cccc(C(F)(F)F)c1` [Example 35, 3-[5-[3,6-dimethyl-2,4-dioxo-1-(3-trifluoromethylphenyl)-1,2,3,4-tetrahydropyrimidin-5-yl]-1H-pyrazol-1-yl]benzonitrile], for which the “Inhibition ratio (%)” value (at 100 μM) came to 49%.

With `CSc1cc(C#N)ccc1-n1nccc1-c1c(C)n(-c2cccc(C(F)(F)F)c2)c(=O)n(C)c1=O` [Example 36, 4-[5-[3,6-dimethyl-2,4-dioxo-1-(3-trifluoromethylphenyl)-1,2,3,4-tetrahydropyrimidin-5-yl]-1H-pyrazol-1-yl]-3-(methylthio)benzonitrile], the IC50 turned out to be 111 nM.

Take `Cc1c(-c2ccnn2-c2ccc(C#N)cc2)c(=O)n(C)c(=O)n1-c1cccc(C(C)(C)C)c1` [Example 38, 4-(5-(1-(3-tert-butylphenyl)-3,6-dimethyl-2,4-dioxo-1,2,3,4-tetrahydropyrimidin-5-yl)-1H-pyrazol-1-yl)benzonitrile]: the IC50 was 7910 nM.

In the case of `Cc1c(-c2ccnn2-c2ccc(C#N)cc2)c(=O)n(C)c(=O)n1-c1cccc(S(C)(=O)=O)c1` [Example 39, 4-(5-(3,6-dimethyl-1-(3-(methylsulfonyl)phenyl)-2,4-dioxo-1,2,3,4-tetrahydropyrimidin-5-yl)-1H-pyrazol-1-yl)benzonitrile], the IC50 came out at 19900 nM.

For the compound `COc1ccc(-n2nccc2-c2c(C)n(-c3cccc(C(F)(F)F)c3)c(=O)n(C)c2=O)cc1` [Example 40, 5-(1-(4-methoxyphenyl)-1H-pyrazol-5-yl)-3,6-dimethyl-1-(3-(trifluoromethyl)phenyl)pyrimidin-2,4(1H,3H)-dione], the IC50 came out at 8340 nM.

Take `CCCn1c(=O)c(-c2ccnn2-c2ccc(C#N)cc2)c(N)n(-c2cccc([N+](=O)[O-])c2)c1=O` [Example 57, 4-[5-[6-Amino-1-(3-nitrophenyl)-2,4-dioxo-3-propyl-1,2,3,4-tetrahydropyrimidin-5-yl]-1H-pyrazol-1-yl]benzonitrile]: the IC50 amounted to 159 nM.

Turning to `Cn1c(=O)c(-c2ccnn2-c2ccc(C#N)cc2)c(N)n(-c2cccc(C(F)(F)F)c2)c1=O` [Example 58, 4-[5-[6-Amino-3-methyl-2,4-dioxo-1-(3-trifluoromethylphenyl)-1,2,3,4-tetrahydropyrimidin-5-yl]-1H-pyrazol-1-yl]benzonitrile], the IC50 came out at 552 nM.

Regarding `Cc1c(-c2cccnc2-c2ccc(C#N)cc2)c(=O)n(C)c(=O)n1-c1cccc(C(F)(F)F)c1` [Example 61, 4-[3-[3,6-dimethyl-2,4-dioxo-1-(3-trifluoromethylphenyl)-1,2,3,4-tetrahydropyrimidin-5-yl]-pyridin-2-yl]benzonitrile], the IC50 was 74 nM.

For `CCCn1c(=O)c(-n2cnnc2-c2ccc(C#N)cc2)c(C)n(-c2cccc(C(F)(F)F)c2)c1=O` [Example 62, 4-[4-[6-Methyl-2,4-dioxo-3-propyl-1-(3-trifluoromethylphenyl)-1,2,3,4-tetrahydropyrimidin-5-yl]-4H-1,2,4-triazol-3-yl]benzonitrile], the IC50 is 68 nM.

For the compound `Cc1c(-c2ccnn2-c2ccc(C#N)cc2)c(=O)n(CC=O)c(=O)n1-c1cccc(C(F)(F)F)c1` [Example 68], the IC50 was 111 nM.

As for `Cc1c(-c2ccnn2-c2ccc(C#N)cc2)c(=O)n(CCN(C)C)c(=O)n1-c1cccc(C(F)(F)F)c1` [Example 69, 4-[5-[3-(2-Dimethylaminoethyl)-6-methyl-2,4-dioxo-1-(3-trifluoromethylphenyl)-1,2,3,4-tetrahydropyrimidin-5-yl]-1H-pyrazol-1-yl]benzonitrile], the IC50 stood at 114 nM.

Take `CNCCn1c(=O)c(-c2ccnn2-c2ccc(C#N)cc2)c(C)n(-c2cccc(C(F)(F)F)c2)c1=O` [Example 70, 4-[5-[6-Methyl-3-(2-methylaminoethyl)-2,4-dioxo-1-(3-trifluoromethylphenyl)-1,2,3,4-tetrahydropyrimidin-5-yl]-1H-pyrazol-1-yl]benzonitrile]: the IC50 came out at 43 nM.

With `CC(=O)NCCn1c(=O)c(-c2ccnn2-c2ccc(C#N)cc2)c(C)n(-c2cccc(C(F)(F)F)c2)c1=O` [Example 71, N-[2-[5-[1-(4-Cyanophenyl)-1H-pyrazol-5-yl]-4-methyl-2,6-dioxo-3-(3-trifluoromethylphenyl)-2,3-dihydropyrimidin-1(6H)-yl]ethyl]acetamide], the IC50 was 169 nM.

With `Cc1c(-c2ccnn2-c2ccc(C#N)cc2)c(=O)n(CC(=O)O)c(=O)n1-c1cccc(C(F)(F)F)c1` [Example 72, 2-[5-[1-(4-Cyanophenyl)-1H-pyrazole-5-yl]-4-methyl-2,6-dioxo-3-(3-trifluoromethylphenyl)-2,3-dihydropyrimidin-1(6H)-yl]acetic acid], the IC50 was 138 nM.

With `Cc1c(-c2ccnn2-c2ccc(C#N)cc2)c(=O)n(CCC(=O)O)c(=O)n1-c1cccc(C(F)(F)F)c1` [Example 73, 3-[5-[1-(4-Cyanophenyl)-1H-pyrazol-5-yl]-4-methyl-2,6-dioxo-3-(3-trifluoromethylphenyl)-2,3-dihydropyrimidin-1(6H)-yl]propanoic acid], the IC50 turned out to be 535 nM.

On to `Cc1c(-c2ccnn2-c2ccc(C#N)cc2)c(=O)n(CCCC(=O)O)c(=O)n1-c1cccc(C(F)(F)F)c1` [Example 74, 4-[5-[1-(4-Cyanophenyl)-1H-pyrazol-5-yl]-4-methyl-2,6-dioxo-3-(3-trifluoromethylphenyl)-2,3-dihydropyrimidin-1(6H)-yl]butanoic acid], for which the IC50 was 312 nM.

For the compound `Cc1c(-c2ccnn2-c2ccc(C#N)cc2)c(=O)n(CCC(=O)N(C)C)c(=O)n1-c1cccc(C(F)(F)F)c1` [Example 75, 3-[5-[1-(4-Cyanophenyl)-1H-pyrazol-5-yl]-4-methyl-2,6-dioxo-3-(3-trifluoromethylphenyl)-2,3-dihydropyrimidin-1(6H)-yl]-N,N-dimethylpropaneamide], the IC50 was 656 nM.

`Cc1c(-c2ccnn2-c2ccc(C#N)cc2)c(=O)n(CC(N)=O)c(=O)n1-c1cccc(C(F)(F)F)c1` [Example 76, 2-[5-[1-(4-cyanophenyl)-1H-pyrazol-5-yl]-4-methyl-2,6-dioxo-3-(3-trifluoromethylphenyl)-2,3-dihydropyrimidin-1(6H)-yl]-acetamide]: the IC50 is 232 nM.

Consider `CNC(=O)Cn1c(=O)c(-c2ccnn2-c2ccc(C#N)cc2)c(C)n(-c2cccc(C(F)(F)F)c2)c1=O` [Example 77, 2-[5-[1-(4-cyanophenyl)-1H-pyrazol-5-yl]-4-methyl-2,6-dioxo-3-(3-trifluoromethylphenyl)-2,3-dihydropyrimidin-1(6H)-yl]-N-methylacetamide], for which the IC50 turned out to be 184 nM.

Regarding `CNC(=O)CCCn1c(=O)c(-c2ccnn2-c2ccc(C#N)cc2)c(C)n(-c2cccc(C(F)(F)F)c2)c1=O` [Example 80, 4-[5-[1-(4-cyanophenyl)-1H-pyrazol-5-yl]-4-methyl-2,6-dioxo-3-(3-trifluoromethylphenyl)-2,3-dihydropyrimidin-1(6H)-yl]-N-methylbutaneamide], the IC50 turned out to be 1290 nM.

Regarding `Cc1c(-c2ccnn2-c2ccc(C#N)cc2)c(=O)n(CCCC(=O)N(C)C)c(=O)n1-c1cccc(C(F)(F)F)c1` [Example 81, 4-[5-[1-(4-cyanophenyl)-1H-pyrazol-5-yl]-4-methyl-2,6-dioxo-3-(3-trifluoromethylphenyl)-2,3-dihydropyrimidin-1(6H)-yl]-N,N-dimethylbutaneamide], the IC50 was 616 nM.

On to `Cc1c(-c2ccnn2-c2ccc(C#N)cc2)c(=O)n(CC(=O)N[C@@H](C)c2ccccc2)c(=O)n1-c1cccc(C(F)(F)F)c1` [Example 82, (S)-2-(5-(1-(4-cyanophenyl)-1H-pyrazole-5-yl)-4-methyl-2,6-dioxo-3-(3-(trifluoromethyl)phenyl)-2,3-dihydropyrimidin-1(6H)-yl)-N-(1-phenylethyl)acetamide], for which the IC50 turned out to be 108 nM.

For `Cc1c(-c2ccnn2-c2ccc(C#N)cc2)c(=O)n(CCCO)c(=O)n1-c1cccc(C(F)(F)F)c1` [Example 83, 4-[5-[3-(3-Hydroxypropyl)-6-methyl-2,4-dioxo-1-(3-trifluoromethylphenyl)-1,2,3,4-tetrahydropyrimidin-5-yl]-1H-pyrazol-1-yl]benzonitrile], the IC50 was 776 nM.

Take `Cc1c(-c2ccnn2-c2ccc(C#N)cc2)c(=O)n(CCCCO)c(=O)n1-c1cccc(C(F)(F)F)c1` [Example 84, 4-[5-[3-(4-hydroxybutyl)-6-methyl-2,4-dioxo-1-(3-trifluoromethylphenyl)-1,2,3,4-tetrahydropyrimidin-5-yl]-1H-pyrazol-1-yl]benzonitrile]: the IC50 was 147 nM.

`Cc1c(-c2ccnn2-c2ccc(C#N)cc2)c(=O)n(CCCCCN)c(=O)n1-c1cccc(C(F)(F)F)c1` [Example 85, 4-[5-[3-(5-Aminopentyl)-6-methyl-2,4-dioxo-1-(3-trifluoromethylphenyl)-1,2,3,4-tetrahydropyrimidin-5-yl]-1H-pyrazol-1-yl]benzonitrile hydrochloride]: the IC50 was 4.3 nM.

As for `CC(=O)NCCCCCn1c(=O)c(-c2ccnn2-c2ccc(C#N)cc2)c(C)n(-c2cccc(C(F)(F)F)c2)c1=O` [Example 86, N-[5-[5-[1-(4-Cyanophenyl)-1H-pyrazol-5-yl]-4-methyl-2,6-dioxo-3-(3-trifluoromethylphenyl)-2,3-dihydropyrimidin-1(6H)-yl]pentyl]acetamide], the IC50 came to 3.2 nM.
